Like-named read-outs stand apart in the source and are kept apart here. Numbered stars: 1 amine (or outer) side, 2 acyl side, 3 side chain; on linkers, the order of the positions; unused ones are H or OH. Bridge positions count the residues as written; N and C are the ends. Square brackets hold non-standard residues; d marks the D form. Peptide text beside a SMILES is read from it. * marks the point of attachment. C20 diacid = O=C(O)CCCCCCCCCCCCCCCCCCC(=O)*; γGlu = O=C(O)[C@H](CCC(=O)[*:2])N[*:1]; 4Pal = N[C@@H](Cc1ccncc1)C(=O)O; CH2 = C([*:1])[*:2]; βAla = NCCC(=O)O
Molecular target: T1, human NPRA (Homo sapiens, UniProt P16066)
T1 construct: Full-Length cDNA Cloning and Generation of Cell Lines Overexpressing Natriuretic Peptide Receptors (NPRs); expressed in transfected cells; host or cells: Jump-in T-Rex HEK293 cells, pJTI R4 CMV-TO MCS pA vector, tetracycline induction
T1 sequence (P16066 33-1061): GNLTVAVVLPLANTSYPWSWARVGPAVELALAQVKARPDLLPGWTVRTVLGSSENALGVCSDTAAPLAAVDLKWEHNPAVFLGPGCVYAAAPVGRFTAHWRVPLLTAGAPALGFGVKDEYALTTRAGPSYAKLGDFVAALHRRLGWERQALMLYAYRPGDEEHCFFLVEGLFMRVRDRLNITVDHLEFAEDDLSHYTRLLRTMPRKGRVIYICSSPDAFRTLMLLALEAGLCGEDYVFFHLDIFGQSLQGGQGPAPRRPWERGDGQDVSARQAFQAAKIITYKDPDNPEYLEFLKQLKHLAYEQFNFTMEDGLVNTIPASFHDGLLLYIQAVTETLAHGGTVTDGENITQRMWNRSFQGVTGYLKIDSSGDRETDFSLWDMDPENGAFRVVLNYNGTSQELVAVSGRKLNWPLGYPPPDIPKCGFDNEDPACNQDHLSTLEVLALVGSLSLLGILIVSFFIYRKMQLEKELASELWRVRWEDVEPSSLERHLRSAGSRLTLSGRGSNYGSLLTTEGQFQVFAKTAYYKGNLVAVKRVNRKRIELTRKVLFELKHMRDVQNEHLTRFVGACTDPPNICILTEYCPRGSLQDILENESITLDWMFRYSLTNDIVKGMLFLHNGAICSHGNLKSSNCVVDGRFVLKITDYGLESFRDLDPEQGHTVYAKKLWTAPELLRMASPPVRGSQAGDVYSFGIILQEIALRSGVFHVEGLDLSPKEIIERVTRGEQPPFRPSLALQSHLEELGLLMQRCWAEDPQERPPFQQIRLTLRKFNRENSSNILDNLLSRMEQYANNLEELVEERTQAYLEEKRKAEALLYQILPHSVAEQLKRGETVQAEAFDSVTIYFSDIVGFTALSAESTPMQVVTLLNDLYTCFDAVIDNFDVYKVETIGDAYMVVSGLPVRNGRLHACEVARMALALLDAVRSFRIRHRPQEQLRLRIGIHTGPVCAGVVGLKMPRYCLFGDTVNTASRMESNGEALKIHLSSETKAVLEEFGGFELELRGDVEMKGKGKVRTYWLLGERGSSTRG
Assay: Human NPRA cGMP activity assay (HTRF) in HEK293 cells overexpressing NPRA
Assay type: cell-based
Procedure: All sequences were verified by full-length sequencing performed by ACGT DNA Sequencing Services (Wheeling, IL). The target cDNA was cloned into pJTI R4 CMV-TO MCS pA vector and then co-transfected with pJT1R4 Int vector into Jump-in™ T-Rex™ HEK293 cells for mammalian inducible expression using Jump-in™ T-Rex™ HEK293 kit and Lipofectamine LTX and Plus Reagent following manufacturer's protocols, as briefly described below.
Jump-in™ T-Rex™ HEK293 cells were plated in a BioCOAT® poly-D-lysine coated 6-well plate (Becton Dickinson, cat no. 354413) at 1 million cells/well in 2 mL culture medium and incubated for 18 h at 37° C. and 5% CO2 to 50-70% confluence. A cDNA mix was made in a 50 mL tube by adding 1.5 μg target cDNA, 1.5 μg pJT1R4 Int vector, 3 μL Plus Reagent, and 300 μL Opti-MEM I sequentially into the tube. A reagent mix was made in a separate 50 mL tube by adding 7.5 μL Lipofectamine LTX into 300 μL Opti-MEM I. The mixtures were incubated for 5 min at room temperature. The cDNA mix was then transferred into the reagent mix, mixed well, and incubated for additional 30 min at room temperature. A 500 μL of cDNA/Lipofectamine complex was then transferred to the wells of the cell plate in which the culture medium was changed to 2 mL of transfection medium containing DMEM with 4.5 g/L D-glucose supplemented with 10% FBS-HI and 20 mM HEPES. Transfected cells were cultured for 48 h in an incubator at 37° C. and 5% CO2. A subclone or pool from each overexpressing cell line was maintained in culture medium with the addition of 2 mg/mL G418 sulfate for the clone selection based on its built-in resistance to G418 sulfate for at least 3 weeks with medium changed every 2-3 days.
NPRs were overexpressed in T-Rex™ HEK293 cells following the induction with 300 ng/mL tetracycline in culture medium for 48 h. Induced cell lines in an exponential growth phase were treated with 0.05% trypsin-EDTA for a few seconds at room temperature, harvested in cell medium containing FBS to neutralize the trypsin, counted, and cryopreserved at the density of 2 million cells/mL in cell preservation solution containing FBS-HI with 5% DMSO. Cryopreserved cells were stored at −80° C. for a few days prior to transferring to a liquid nitrogen tank. Induced cell lines were then used for suspension assays to measure the activity of polypeptides to stimulate cGMP production in cGMP assays or for the preparation of cell membranes to measure the binding activity of polypeptides in competitive radioligand binding assays, as described below.
Test polypeptides were added starting at 10 μM concentration and at 10-fold decreasing concentrations to obtain 8-point concentration-response curves (i.e., 10 μM to 1 pM). The quantity of cGMP generated was detected using HTRF® technology and normalized to maximum amount produced by 100 nM amidated rat ANP and the minimum amount produced by assay buffer. Detailed steps are outlined below.
Stock solutions of test polypeptides (2 mM) dissolved in DMSO were first diluted 100-fold in assay buffer containing HBSS with Ca^2+ and Mg^2+, 5 mM HEPES, 0.5 mM IBMX, and 0.1% BSA or 0.1% casein (pH 7.4). The polypeptides were further serially diluted in 1:10 dilution steps in assay buffer containing 0.1% BSA or 0.1% casein to generate 8-point 2× working stock solutions ranging from 20 μM to […].
A 10 μL cell suspension containing 4000 cells was plated in Costar® half-area white opaque 96-well plates (Corning, cat no. 3693). Then 10 μL of assay buffer (basal activity), 200 nM of amidated rat ANP (maximum activity) or 2× working stock solutions of test polypeptides were transferred into the plate. Final concentration of DMSO in each well was 0.5%. The plate was shaken for 15 sec and then incubated for 40 min at room temperature.
The cGMP generated was measured using cGMP kit following the manufacturer's directions, as described below.

[1] = cGMP Assay (EC50, pM) w/Casein hNPRA, assay buffer with 0.1% casein

Compound | EC50 [1] [pM] | EC50 (assay buffer with 0.1% BSA, read-out: cGMP Assay (EC50, pM) w/BSA hNPRA) [pM]
CC[C@H](C)[C@@H]1NC(=O)[C@H](CCCNC(=N)N)NC(=O)[C@H](CC(=O)O)NC(=O)[C@H]([C@@H](C)CC)NC(=O)[C@H](CCCNC(=N)N)NC(=O)[C@H](CCCCN)NC(=O)CNC(=O)[C@H](Cc2ccccc2)NC(=O)[C@@H](NC(=O)[C@H](CO)NC(=O)[C@H](CO)NC(=O)[C@H](CCCNC(=N)N)NC(=O)[C@@H]2CCCN2C(=O)[C@H](CCCCN)NC(=O)[C@H](CCC(=O)O)NC(=O)COCCOCCNC(=O)COCCOCCNC(=O)COCCOCCNC(=O)COCCOCCNC(=O)COCCOCCNC(=O)COCCOCCNC(=O)COCCOCCNC(=O)COCCOCCNC(=O)CNC(=O)[C@H](CCCCN)NC(=O)[C@H](CCC(=O)O)NC(=O)[C@H](CCCCN)NC(=O)[C@H](CCC(=O)O)NC(=O)[C@H](CCCCN)NC(=O)[C@H](CCC(=O)O)NC(=O)CC[C@H](NC(=O)CCCCCCCCCCCCCCCCCCC(=O)O)C(=O)O)CSCSC[C@@H](C(=O)N2CCC[C@H]2C(=O)N[C@@H](CO)C(=O)N[C@@H](Cc2ccccc2)C(=O)N[C@@H](CCCNC(=N)N)C(=O)N[C@@H](Cc2c[nH]cn2)C(=O)N[C@@H](CO)C(=O)NCC(=O)N[C@@H](CO)C(=O)N2CCC[C@H]2C(=O)N[C@@H](CO)C(=O)N[C@@H](CO)C(=O)NCC(=O)N[C@@H](C)C(=O)N2CCC[C@H]2C(=O)N2CCC[C@H]2C(=O)N2CCC[C@H]2C(=O)N[C@@H](CO)C(=O)NCC(N)=O)NC(=O)CNC(=O)[C@H](CC(C)C)NC(=O)CNC(=O)[C@H](CO)NC(=O)[C@H](Cc2ccc(O)cc2)NC(=O)[C@H](Cc2c[nH]cn2)NC(=O)CNC1=O [Example 126] | 1090 | –
CC[C@H](C)[C@@H]1NC(=O)[C@H](CCCNC(=N)N)NC(=O)[C@H](CC(=O)O)NC(=O)[C@H]([C@@H](C)CC)NC(=O)[C@H](CCCNC(=N)N)NC(=O)CNC(=O)CNC(=O)[C@H](Cc2ccccc2)NC(=O)[C@@H](NC(=O)[C@H](CO)NC(=O)[C@H](CO)NC(=O)[C@H](CCCNC(=N)N)NC(=O)[C@H](CCCNC(=N)N)NC(=O)[C@H](Cc2ccncc2)NC(=O)[C@H](CO)NC(=O)CNC(=O)[C@H](CCCCN)NC(=O)[C@H](CCC(=O)O)NC(=O)[C@H](CCCCN)NC(=O)[C@H](CCC(=O)O)NC(=O)[C@H](CCCCN)NC(=O)[C@H](CCC(=O)O)NC(=O)CC[C@H](NC(=O)CCCCCCCCCCCCCCCCCCC(=O)O)C(=O)O)CSCSC[C@@H](C(=O)N2CCC[C@H]2C(=O)N[C@@H](CO)C(=O)N[C@@H](Cc2ccccc2)C(=O)N[C@@H](CCCNC(=N)N)C(=O)N[C@@H](Cc2c[nH]cn2)C(=O)NCC(=O)NCC(=O)N2CCC[C@H]2C(=O)N[C@@H](CO)C(=O)N[C@@H](CO)C(=O)NCC(=O)N[C@@H](C)C(=O)N2CCC[C@H]2C(=O)N2CCC[C@H]2C(=O)N2CCC[C@H]2C(=O)N[C@@H](CO)C(N)=O)NC(=O)CNC(=O)[C@H](CC(C)C)NC(=O)CNC(=O)[C@H](CO)NC(=O)[C@H](CCC(N)=O)NC(=O)[C@H](Cc2c[nH]cn2)NC(=O)CNC1=O [Example 2] | 1020 | –
{C20 diacid-γGlu}-EKEKEKGEK[βAla]RSSCFGGRIDRIGHYSGLGCPSLRHGGPSSGAPPPS-NH2 (linker 14-30 via CH2) [Example 63] | 1090 | –
CC[C@H](C)[C@@H]1NC(=O)[C@H](CCCNC(=N)N)NC(=O)[C@H](CC(=O)O)NC(=O)[C@H]([C@@H](C)CC)NC(=O)[C@H](CCCNC(=N)N)NC(=O)CNC(=O)CNC(=O)[C@H](Cc2ccccc2)NC(=O)[C@@H](NC(=O)[C@H](CO)NC(=O)[C@H](CO)NC(=O)[C@H](CCCNC(=N)N)NC(=O)[C@H](CCCNC(=N)N)NC(=O)[C@H](CC(C)C)NC(=O)[C@H](CO)NC(=O)CNC(=O)[C@H](CCCCN)NC(=O)[C@H](CCC(=O)O)NC(=O)[C@H](CCCCN)NC(=O)[C@H](CCC(=O)O)NC(=O)[C@H](CCCCN)NC(=O)[C@H](CCC(=O)O)NC(=O)CC[C@H](NC(=O)CCCCCCCCCCCCCCCCCCC(=O)O)C(=O)O)CSSC[C@@H](C(=O)N[C@@H](CC(N)=O)C(=O)N[C@@H](CO)C(=O)N[C@@H](Cc2ccccc2)C(=O)N[C@@H](CCCNC(=N)N)C(=O)N[C@@H](Cc2ccncc2)C(N)=O)NC(=O)CNC(=O)[C@H](CC(C)C)NC(=O)CNC(=O)[C@H](CO)NC(=O)[C@H](CCC(N)=O)NC(=O)[C@H](C)NC(=O)CNC1=O [Example 9] ({C20 diacid-γGlu}-EKEKEKGSLRRSSCFGGRIDRIGAQSGLGCNSFR[4Pal]-NH2; disulfide 14-30) | – | 101000
